Measurements as given in US20240132431A1, “METHOD FOR ALKYLATING ACIDIC FUNCTIONAL GROUP” (Chugai Seiyaku Kabushiki Kaisha, priority 2021, published 2024).

Biological target: T1, Bcl-2 protein (Recombinant Human Bcl-2 Protein) (Homo sapiens, UniProt P10415)
T1 construct: purchased Novus NBP2-34889
Experiment: Binding evaluation of mixture library compounds to Bcl-2 using AS-MS (affinity selection mass spectrometry)
Conditions: for ASMS ratio (%) n = 1 / ASMS ratio (%) n = 2: ASMS Ratio(%)=(A−C)/B×100; for ASMS ratio (%) n = 1: replicate n = 1; for ASMS ratio (%) n = 2: replicate n = 2
Summary of the method: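 Bcl-2 binding is scored from LC/MS signal retained with protein through gel-filtration spin columns, normalised to unfiltered and protein-free controls. Incubation: 20 μM protein, […] per compound, 1 h, 23° C.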

[1] = AS-MS, mixture of 1200 compounds, Bcl-2
[2] = AS-MS on the mixture of 1200 library compounds

T1 sequence (P10415 whole entry): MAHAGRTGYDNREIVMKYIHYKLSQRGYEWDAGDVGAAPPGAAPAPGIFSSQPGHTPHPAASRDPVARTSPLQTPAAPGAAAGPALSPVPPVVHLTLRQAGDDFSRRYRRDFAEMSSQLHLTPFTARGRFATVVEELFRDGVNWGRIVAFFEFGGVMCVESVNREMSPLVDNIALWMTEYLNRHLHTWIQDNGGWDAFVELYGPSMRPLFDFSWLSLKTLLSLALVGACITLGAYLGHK

Row | Structure (SMILES) | ASMS ratio (%) (n = 1) | ASMS ratio (%) n = 1 [1] [%] | ASMS ratio (%) n = 2 [1] [%] | further results
1 | CCOc1cncc(-c2cc(CN3CCN(c4ccc(C(=O)NS(=O)(=O)c5ccc(NCCSc6ccccc6)c([N+](=O)[O-])c5)cc4)CC3)cc(OC(F)(F)F)c2)c1 [B2Q064-01] | – | – | – | ASMS ratio (%) n = 1 (AS-MS, mixture library, Bcl-2): 8.6%; ASMS ratio (%) n = 2 (AS-MS, mixture library, Bcl-2): −1.6%
2 | CCOc1cncc(-c2cc(OC)c(CN3CCN(c4ccc(C(=O)NS(=O)(=O)CCC(F)(F)F)nn4)CC3)c(OC)c2)c1 [B2N086-01, 6-[4-[[4-(5-Ethoxypyridin-3-yl)-2,6-dimethoxyphenyl]methyl]piperazin-1-yl]-N-(3,3,3-trifluoropropylsulfonyl)pyridazine-3-carboxamide] | 0.0 | – | – | ASMS ratio (%) (n = 2): 0.0%
3 | CCOc1cncc(C#Cc2ccccc2C(=O)N2CCN(c3ccc(C(=O)NS(C)(=O)=O)nn3)CC2)c1 [B2I008-01, 6-[4-[2-[2-(5-Ethoxypyridin-3-yl)ethynyl]benzoyl]piperazin-1-yl]-N-methylsulfonylpyridazine-3-carboxamide] | – | – | – | ASMS ratio (%) n = 1 (AS-MS, mixture library, Bcl-2): 0.0%; ASMS ratio (%) n = 2 (AS-MS, mixture library, Bcl-2): 0.0%
4 | CCOc1cncc(-c2ccccc2CCC(=O)N2CCN(c3ccc(C(=O)N(C)CC45CC6CC(CC(C6)C4)C5)nn3)CC2)c1 [B3A012-01, N-(1-Adamantylmethyl)-6-[4-[3-[2-(5-ethoxypyridin-3-yl)phenyl]propanoyl]piperazin-1-yl]-N-methylpyridazine-3-carboxamide] | – | – | – | ASMS ratio (%) n = 1 [2]: 1.4%; ASMS ratio (%) n = 2 [2]: −2.7%
5 | CCOc1cncc(-c2ccc(C(=O)N3CCN(c4ccc(C(=O)Nc5ccc(OC)cc5)nn4)CC3)c3ccccc23)c1 [B1O014-01, 6-[4-[4-(5-Ethoxypyridin-3-yl)naphthalene-1-carbonyl]piperazin-1-yl]-N-(4-methoxyphenyl)pyridazine-3-carboxamide] | – | – | – | ASMS ratio (%) n = 1 [2]: 2.5%; ASMS ratio (%) n = 2 [2]: 0.2%
6 | CCOc1cccc(-c2cc(OC)c(CN3CCN(c4ccc(C(=O)NS(=O)(=O)C(C)(C)C)nn4)CC3)c(OC)c2)c1 [B2L085-01, N-tert-Butylsulfonyl-6-[4-[[4-(3-ethoxyphenyl)-2,6-dimethoxyphenyl]methyl]piperazin-1-yl]pyridazine-3-carboxamide] | 0.0 | – | – | ASMS ratio (%) (n = 2): 0.0%
7 | CCOc1cncc(-c2ccc(CN3CCN(c4ccc(C(=O)NCC56CC7CC(CC(C7)C5)C6)cc4)CC3)cc2F)c1 [B1A052-01, N-(1-Adamantylmethyl)-4-[4-[[4-(5-ethoxypyridin-3-yl)-3-fluorophenyl]methyl]piperazin-1-yl]benzamide] | – | 4.2 | −6.2 | –
8 | CCOc1cncc(-c2cc(OC)c(CN3CCN(c4ccc(C(=O)N(CC)CC)nn4)CC3)c(OC)c2)c1 [B4J086-01, 6-[4-[[4-(5-Ethoxypyridin-3-yl)-2,6-dimethoxyphenyl]methyl]piperazin-1-yl]-N,N-diethylpyridazine-3-carboxamide] | – | – | – | ASMS ratio (%) n = 1 (AS-MS, mixture library, Bcl-2): 0.0%; ASMS ratio (%) n = 2 (AS-MS, mixture library, Bcl-2): 0.0%
9 | CCOc1cccc(-c2ccc(CN3CCN(c4ccc(C(=O)NCC56CC7CC(CC(C7)C5)C6)nn4)CC3)cc2C)c1 [B1A073-01, N-(1-Adamantylmethyl)-6-[4-[[4-(3-ethoxyphenyl)-3-methylphenyl]methyl]piperazin-1-yl]pyridazine-3-carboxamide] | – | 3.2 | −4.7 | –
10 | CCOc1cccc(-c2csc(CN3CCN(c4ccc(C(=O)N(C)CC56CC7CC(CC(C7)C5)C6)nn4)CC3)c2)c1 [B3A093-01, N-(1-Adamantylmethyl)-6-[4-[[4-(3-ethoxyphenyl)thiophen-2-yl]methyl]piperazin-1-yl]-N-methylpyridazine-3-carboxamide] | – | – | – | ASMS ratio (%) n = 1 [2]: −3.8%; ASMS ratio (%) n = 2 [2]: 0.0%
11 | CCOc1cncc(-c2cc(OC)c(CN3CCN(c4ccc(C(=O)NCC56CC7CC(CC(C7)C5)C6)cc4)CC3)c(OC)c2)c1 [B1A060-01, N-(1-Adamantylmethyl)-4-[4-[[4-(5-ethoxypyridin-3-yl)-2,6-dimethoxyphenyl]methyl]piperazin-1-yl]benzamide] | – | 0.0 | – | –
12 | CCOc1cncc(C#Cc2ccccc2C(=O)N2CCN(c3ccc(C(=O)NS(=O)(=O)c4ccc(NCCSc5ccccc5)c([N+](=O)[O-])c4)nn3)CC2)c1 [B2Q008-01, 6-[4-[2-[2-(5-Ethoxypyridin-3-yl)ethynyl]benzoyl]piperazin-1-yl]-N-[3-nitro-4-(2-phenylsulfanylethylamino)phenyl]sulfonylpyridazine-3-carboxamide] | – | – | – | ASMS ratio (%) n = 1 (AS-MS, mixture library, Bcl-2): 16.5%; ASMS ratio (%) n = 2 (AS-MS, mixture library, Bcl-2): 0.5%
13 | CCOc1cncc(-c2ccc(CN3CCN(c4ccc(C(=O)NS(=O)(=O)CC56CC7CC(CC(C7)C5)C6)nn4)CC3)cc2C)c1 [B2A074-01, N-(1-Adamantylmethylsulfonyl)-6-[4-[[4-(5-ethoxypyridin-3-yl)-3-methylphenyl]methyl]piperazin-1-yl]pyridazine-3-carboxamide] | – | – | – | ASMS ratio (%) n = 1 (AS-MS, mixture library, Bcl-2): 9.2%; ASMS ratio (%) n = 2 (AS-MS, mixture library, Bcl-2): 1.9%
14 | CCOc1cncc(C#Cc2ccccc2C(=O)N2CCN(c3ccc(C(=O)NS(=O)(=O)CC45CC6CC(CC(C6)C4)C5)cc3)CC2)c1 [B2A030-01, N-(1-Adamantylmethylsulfonyl)-4-[4-[2-[2-(5-ethoxypyridin-3-yl)ethynyl]benzoyl]piperazin-1-yl]benzamide] | – | – | – | ASMS ratio (%) n = 1 (AS-MS, mixture library, Bcl-2): 0.0%; ASMS ratio (%) n = 2 (AS-MS, mixture library, Bcl-2): 0.3%

More lines, main results first:

Row | ASMS ratio (%) (n = 1) | ASMS ratio (%) n = 1 [1] [%] | ASMS ratio (%) n = 2 [1] [%] | Structure (SMILES) | further results
15 | 0.0 | – | – | CCOc1cccc(-c2ccc(CN3CCN(c4ccc(C(=O)NS(C)(=O)=O)nn4)CC3)cc2F)c1 [B2I077-01, 6-[4-[[4-(3-Ethoxyphenyl)-3-fluorophenyl]methyl]piperazin-1-yl]-N-methylsulfonylpyridazine-3-carboxamide] | ASMS ratio (%) (n = 2): 0.0%
16 | 0.0 | – | – | CCOc1cccc(C#Cc2ccccc2CN2CCN(c3ccc(C(=O)NS(=O)(=O)CCC(F)(F)F)nn3)CC2)c1 [B2N095-01, 6-[4-[[2-[2-(3-Ethoxyphenyl)ethynyl]phenyl]methyl]piperazin-1-yl]-N-(3,3,3-trifluoropropylsulfonyl)pyridazine-3-carboxamide] | ASMS ratio (%) (n = 2): 0.0%
17 | – | 0.0 | 1.4 | CCOc1cccc(-c2ccc(C(=O)N3CCN(c4ccc(C(=O)NCC(F)(F)F)nn4)CC3)c3ccccc23)c1 [B1K013-01, 6-[4-[4-(3-Ethoxyphenyl)naphthalene-1-carbonyl]piperazin-1-yl]-N-(2,2,2-trifluoroethyl)pyridazine-3-carboxamide] | –
18 | 0.0 | – | – | CCOc1cccc(-c2csc(CN3CCN(c4ccc(C(=O)NS(=O)(=O)CCC(F)(F)F)nn4)CC3)c2)c1 [B2N093-01, 6-[4-[[4-(3-Ethoxyphenyl)thiophen-2-yl]methyl]piperazin-1-yl]-N-(3,3,3-trifluoropropylsulfonyl)pyridazine-3-carboxamide] | –
19 | – | 0.0 | −0.4 | CCOc1cncc(-c2ccccc2CCC(=O)N2CCN(c3ccc(C(=O)NCC(F)(F)F)nn3)CC2)c1 [B1K012-01, 6-[4-[3-[2-(5-Ethoxypyridin-3-yl)phenyl]propanoyl]piperazin-1-yl]-N-(2,2,2-trifluoroethyl)pyridazine-3-carboxamide] | –
20 | 0.0 | – | – | CCOc1cccc(-c2cc(CN3CCN(c4ccc(C(=O)NS(=O)(=O)C(C)(C)C)cc4)CC3)cc(OCC)c2)c1 [B2L055-01, N-tert-Butylsulfonyl-4-[4-[[3-ethoxy-5-(3-ethoxyphenyl)phenyl]methyl]piperazin-1-yl]benzamide] | ASMS ratio (%) (n = 2): 0.0%
21 | – | 0.0 | 0.0 | CCOc1cccc(-c2cc(C(=O)N3CCN(c4ccc(C(=O)NCC(F)(F)F)nn4)CC3)cc(C(F)(F)F)c2)c1 [B1K017-01, 6-[4-[3-(3-Ethoxyphenyl)-5-(trifluoromethyl)benzoyl]piperazin-1-yl]-N-(2,2,2-trifluoroethyl)pyridazine-3-carboxamide] | –
22 | – | 3.5 | −0.6 | CCOc1cccc(C#Cc2ccccc2CN2CCN(c3ccc(C(=O)NCC(F)(F)F)nn3)CC2)c1 [B1K095-01, 6-[4-[[2-[2-(3-Ethoxyphenyl)ethynyl]phenyl]methyl]piperazin-1-yl]-N-(2,2,2-trifluoroethyl)pyridazine-3-carboxamide] | –
23 | – | 4.3 | 1.3 | CCOc1cccc(-c2csc(C(=O)N3CCN(c4ccc(C(=O)NCC(F)(F)F)cc4)CC3)c2)c1 [B1K023-01, 4-[4-[4-(3-Ethoxyphenyl)thiophene-2-carbonyl]piperazin-1-yl]-N-(2,2,2-trifluoroethyl)benzamide] | –
24 | – | 6.9 | −1.8 | CCOc1cncc(C#Cc2ccccc2C(=O)N2CCN(c3ccc(C(=O)NCC45CC6CC(CC(C6)C4)C5)cc3)CC2)c1 [B1A030-01, N-(1-Adamantylmethyl)-4-[4-[2-[2-(5-ethoxypyridin-3-yl)ethynyl]benzoyl]piperazin-1-yl]benzamide] | –
25 | 0.0 | – | – | CCOc1cncc(-c2ccc(C(=O)N3CCN(c4ccc(C(=O)NS(=O)(=O)C(C)(C)C)cc4)CC3)c3ccccc23)c1 [B2L036-01, N-tert-Butylsulfonyl-4-[4-[4-(5-ethoxypyridin-3-yl)naphthalene-1-carbonyl]piperazin-1-yl]benzamide] | ASMS ratio (%) (n = 2): 0.0%
26 | 0.0 | – | – | CCOc1cccc(-c2cc(CN3CCN(c4ccc(C(=O)NS(=O)(=O)CCC(F)(F)F)nn4)CC3)cc(OCC)c2)c1 [B2N081-01, 6-[4-[[3-Ethoxy-5-(3-ethoxyphenyl)phenyl]methyl]piperazin-1-yl]-N-(3,3,3-trifluoropropylsulfonyl)pyridazine-3-carboxamide] | ASMS ratio (%) (n = 2): 0.0%
